The source made the active and inactive calls. No rule for the calls is given here.
Biological target: Bcl-2-like protein 10 (Homo sapiens) (UniProt Q9HD36)
Assay: Bcl-B Bim peptide interaction hit potency – biochemical, dose response, multiplexed HTS hits, confirmation (AID 2077)
Conditions: bead-based flow cytometry, Bim peptide-Bcl-B binding

Chain of Bcl-2-like protein 10 (Homo sapiens) (Q9HD36 whole entry, looked up): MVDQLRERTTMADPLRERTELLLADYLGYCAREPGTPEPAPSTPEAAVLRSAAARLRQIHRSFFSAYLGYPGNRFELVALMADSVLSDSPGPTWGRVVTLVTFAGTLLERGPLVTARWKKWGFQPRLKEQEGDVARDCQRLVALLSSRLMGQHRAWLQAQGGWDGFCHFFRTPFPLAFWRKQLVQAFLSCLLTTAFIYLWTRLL

EC50 [nM]	Structure (SMILES)
620	COc1ccc(N2C(=O)C(Cl)=C(NC3C(=O)N(c4ccccc4)N(C)C3C)C2=O)cc1 (stereo unspecified)

Same assay, conditions: bead-based flow cytometry, Bim peptide-Bcl-B binding; at 100 µM (top of the series)

Structure (SMILES)	response change, negative = inhibition
O=C1C(Cl)=C(N2CCN(c3ccccc3[N+](=O)[O-])CC2)C(=O)c2ccccc21	inactive
CN(CCO)c1cc(Sc2nc3ccccc3s2)c2nonc2c1[N+](=O)[O-]	inactive
Cc1ccc(-c2cc(-c3ccc(F)cc3)c(C#N)c(N)n2)o1	inactive
COc1ccccc1NC1=C(NC(C)=O)C(=O)c2ccccc2C1=O	inactive
Cc1nnc(Sc2cc(NCCO)c([N+](=O)[O-])c3nonc23)s1	inactive
Oc1ccc(NCc2ccccc2OCc2ccccc2)cc1	inactive
Cc1ccc(-c2cc(-c3ccc(C)o3)nc(N)c2C#N)cc1	inactive
CCN(CC)c1ccc(NC(=O)COc2ccccc2C)cc1S(=O)(=O)Nc1ccccc1OC	inactive
COc1cc(N=C2SSNC2Cl)c(OC)cc1Cl (stereo unspecified)	inactive
Cc1ccc(-c2cc(C(=O)Nc3nccs3)c3ccccc3n2)o1	inactive
C=CS(=O)(=O)c1sc(Cl)c(N2CCOCC2)c1[N+](=O)[O-]	inactive
CNC(CC(=O)c1ccc([N+](=O)[O-])cc1)C(Cl)(Cl)Cl (stereo unspecified)	inactive
COc1cc(CNc2ccc3[nH]c(=O)[nH]c3c2)cc(Br)c1OCC(=O)NC(C)(C)C	inactive
O=[N+]([O-])c1c(NCCCO)cc(Sc2nc3ccccc3s2)c2nonc12	inactive
COc1ccc(CCNC(=O)c2ccc3nc(-c4ccco4)c(-c4ccco4)nc3c2)cc1OC	inactive
O=C(/C=C/c1ccc(-c2ccccc2[N+](=O)[O-])o1)c1ccccc1	inactive
CC(=O)OCCCNc1cc(Sc2nc3ccccc3s2)c2nonc2c1[N+](=O)[O-]	inactive

Second part, the compound after the results:

response change, negative = inhibition	Structure (SMILES)
inactive	Cc1cc2nn(-c3cccc4ccccc34)nc2cc1N
inactive	CNC1CCC(Br)CC(C(=O)/C=C/c2cccc(OC)c2OC)C1=O (stereo unspecified)
inactive	CCOc1ccccc1CNc1ccc(O)cc1
inactive	Cc1ccc(-c2nc3c(c(=O)[nH]c(=O)n3Cc3ccccc3)n2C)o1
inactive	CCN(CC)C(=O)COC(=O)c1cc(-c2ccco2)nc2ccccc12
inactive	O=C1c2ccccc2C(=O)N1CN(C(=O)COc1ccc(Cl)cc1Cl)c1cccc(F)c1
inactive	CCN(CC)c1ccc(NC(=O)c2ccccc2F)cc1S(=O)(=O)Nc1ccccc1OC
inactive	CCN1C(=O)/C(=C\C=C2/C=CC=CN2CC)SC1=S
